We go through three molecules from patent US20230270810A1, “VETERINARY COMPOSITIONS FOR THE TREATMENT AND/OR PREVENTION OF PROTOZOAN DISEASES AND METHODS OF PREPARATION THEREOF” (ADIFEED SP. Z O. O., priority 2020, published 2023).

The subject of test [1] is Amoeba proteus. The test can be described thus: in vitro protozoicidal test, LD50/LD100 within 3 minutes. It is filed as cell-based.
The subject of test [2] is Trichomonas hominis. The test is described as above. It is filed as cell-based.
Test [3] has as its system Gregarina blattarum. In words: in vitro protozoicidal test, LD50/LD100 within 3 minutes, gregarines isolated from cockroaches. It is filed as cell-based. As to conditions: in Ringer's solution. The text has this: For in vitro tests of antiprotozoal activity of the composition five reference organisms representing taxonomic groups to which pathogenic protozoa belong were selected, i.e: • Amoeba proteus—Chaos diffluens—a protozoan of the order Euamoebida, belonging to fifth supergroup of the Amoebozoa, living in waters. • Paramecium caudatum—a slipper animalcule representing the Ciliata orachs, living in waters. • Gregarina blattarum—gregarine isolated from cockroaches, representing the phylum Apicomplexa, living in the digestive tracts or body cavities of invertebrates. • Euglena gracilis—a protozoan living in water, representing the flagellates—Mastigophora, family Euglenaceae. • Trichomonas hominis—a protozoan living in the human colon, representing the Trichomonadidae.
The gregarines were isolated from the cockroaches and, after being placed on a watch slide, were treated with the products at different concentrations in Ringer's solution. Each sample contained ten individuals. […]
The mixture was heated at the boiling point, until the colour changed, under reflux for 20 minutes. […] Compositions I and II were then analysed for their antiprotozoal properties. […]
Individual acids, catalyst solution, essential oil and metal salt solutions were additionally analysed for protozoal properties. […] Observation under a fluorescence microscope with phase contrast was carried out.

In test [4] the test system is Trypanosoma cruzi and Leishmania chagasi. As to conditions: cited from earlier work.
Test [5] concerns Trypanosoma cruzi. As to conditions: read-out: inhibitory effect on 50% of the population (IC50); cited from earlier work.
The subject of test [6] is Trypanosoma cruzi and different Leishmania species. As to conditions: cited from earlier work.
The mark [7] stands for this setting: death of 50% of individuals within 3 minutes.
[8] abbreviates: death of 100% of individuals within 3 minutes.

For `Cc1ncc([N+](=O)[O-])n1CCO` [M, metronidazole], the results for the LD50 in test [1] (setting [7]), in test [2] (setting [7]) and in test [3] (50% of individuals within 3 minutes) were 0.3%, 0.05% and 0.13%, respectively. The LD100 is on record as 0.5% in test [1] (setting [8]), 0.1% in test [2] (setting [8]) and 0.3% in test [3] (100% of individuals within 3 minutes).
As to `CC1CS(=O)(=O)CCN1/N=C/c1ccc([N+](=O)[O-])o1` (stereo not drawn) [Nifurtimox], the results for the IC50 in test [4] and in test [5] were 0.3 to 0.4 µg/mL and 6 µM, respectively.
Turning to `O=C(Cn1ccnc1[N+](=O)[O-])NCc1ccccc1` [benznidazole], the “values obtained (in vitro antiprotozoal activity)” value in test [6] was 45.02 µg/mL.
